Laboratory results taken from patent US11814356B1, “Salt of cabozantinib” (Apotex Inc., priority 2023, dated 2023).

How the values were obtained:
[1] = PXRD form stability of uncapped samples in a stability chamber; format: physicochemical
Experimental: Cabozantinib acesulfamate Form APO-I can be characterized by a PXRD diffractogram comprising, among other peaks, characteristic peaks, expressed in degrees 2θ (±0.2°), at 9.5°, 11.2° and 19.7°. Preferably, the PXRD diffractogram further comprises at least three peaks, expressed in degrees 2θ (±0.2°), selected from the group consisting of 9.1°, 10.2°, 12.7°, 15.9°, 17.4°, and 18.1°. More preferably, the PXRD diffractogram further comprises peaks, expressed in degrees 2θ (±0.2°), at 9.1°, 10.2°, 12.7°, 15.9°, 17.4°, and 18.1°.
PXRD diffractograms were recorded on a Bruker D8 Discover powder X-ray diffractometer (Bruker AXS LLC, Karlsruhe, Germany). The sample holder was oscillated along x and y axes during the measurement. The generator was a Incoatec Microfocus Source (IμS) Cu tube (λ=1.54060 Å) with a voltage of 50 kV and current of 1.00 mA, using a divergence slit of 0.1 mm and collimator of 2.0 mm. For each sample, one frame was collected using a still scan with a PILATUS3 R 100K-A detector at the distance of 294.2 mm from the sample. Raw data were evaluated using the program DIFFRAC.EVA (Bruker AXS LLC, Karlsruhe, Germany).

[2] = pH-dependent; at a pH>3; cited from earlier work
[3] = cited from earlier work

Compound	form stability ([1]; high temperature and high humidity)	change in the crystalline form (PXRD) ([1]; uncapped samples, 40° C./75% RH stability chamber, at least 4 weeks)	aqueous solubility [2]	permeability [3]
CC1=CC(=O)NS(=O)(=O)O1.COc1cc2nccc(Oc3ccc(NC(=O)C4(C(=O)Nc5ccc(F)cc5)CC4)cc3)c2cc1OC [cabozantinib acesulfamate Form APO-I, Cabozantinib Acesulfamate Form APO-I]	form stability	no change in the crystalline form occurred		
COc1cc2nccc(Oc3ccc(NC(=O)C4(C(=O)Nc5ccc(F)cc5)CC4)cc3)c2cc1OC [cabozantinib, N-(4-(6,7-dimethoxyquinolin-4-yloxy)phenyl)-N′-(4-fluorophenyl)cyclopropane-1,1-dicarboxamide]			very low solubility	high permeability
